This note sets out measurements from patent publication EP0528699B1, “Saishin N derivatives, process for their preparation and anti-ulcer agents containing them” (TOKYO TANABE COMPANY LIMITED, priority 1991, dated 1993).

One experiment relates to Serotonin-Induced Ulcers. The experiment can be described thus: Serotonin-Induced Ulcers. To be noted: Rattus norvegicus, 4.5 h, read-out: Serotonin, inhibiting ratio; for inhibition in vivo at 20 mg/kg: dose 20 mg/kg intraduodenally 30 minutes before Serotonin creatinine sulfate 30 mg/kg subcutaneously; for inhibition in vivo at 50 mg/kg: dose 50 mg/kg intraduodenally 30 minutes before Serotonin creatinine sulfate 30 mg/kg subcutaneously. The format is in vivo, male Wister rats. Here is the method:
(§1) Experiments on Hydrochloric acid-Ethanol-Induced Ulcers, Aspirin-Induced Ulcers, Water-Immersion stress-Induced Ulcers, Shay's Ulcers and Serotonin-Induced Ulcers were carried out using male Wister rats weighing about 200g in groups of six. Experiments on Ischemia-Reperfusion -Induced Gastric Lesions were carried out using male SD rats weighing about 250g in groups of six. Other than for the tests on Ischemia-Reperfusion-Induced Gastric Lesions Models, the test compounds were prepared by mixing thoroughly with polyethyleneglycol and 0.5% sodium carboxymethyl cellulose solution and emulsifying vigorously. Activities against respective ulcer models were evaluated by an inhibiting ratio obtained by dividing the difference between the ulceration indexes of the non-administered group and the test compound group by the non-administered group.
To each rat which had been fasted for 24 hours, 30 mg/kg of a solution of serotonin creatinine sulfate in a saline solution was administered subcutaneously. Each rat was then slaughtered after 4 and a half hours and area of gastric mucosal lesion formed facing the center line of greater curvature of the corpus ventriculi of stomach was measured and ulceration index was calculated based on the area. The test compound was administered intraduodenally 30 minutes before the administration of the Serotonin creatinine sulfate.
(§2) The results of Aspirin-Induced Ulcers, Water-immersion stress-Induced Ulcers, Shay's Ulcers, Serotonin-induced Ulcers and Ischemia-Reperfusion-Induced Gastric lesions are shown in Table 3.

In experiment [1] the test system is Hydrochloric acid-Ethanol-Induced Ulcers. The experiment can be described thus: Hydrochloric acid-Ethanol-Induced Ulcers. To be noted: Rattus norvegicus, intraduodenal, read-out: Inhibition ratio(%); for inhibition in vivo at 10 mg/kg: dose 10 mg/kg intraduodenally one hour before hydrochloric acid - 60% ethanol. The format is in vivo, male Wister rats. Here is the method:
as §1
To each rat which had been fasted for 24 hours was orally administered 0.5ml of a mixed solution of 150 mM hydrochloric acid - 60% ethanol per 100g of weight. Each rat was slaughtered after one hour, a length of ulcer formed at the fundus gland area of stomach was measured and ulceration index was calculated based on the length. The test compound was administered intraduodenally one hour or three hours before the administration of mixed solution of hydrochloric acid - 60% ethanol.

A further experiment deals with Shay's Ulcers. The experiment can be described thus: Shay's Ulcers. To be noted: Rattus norvegicus, intraduodenal, 14 h, read-out: Shay, inhibiting ratio; for inhibition in vivo at 50 mg/kg: dose 50 mg/kg intraduodenally immediately after the ligation; for inhibition in vivo at 300 mg/kg: dose 300 mg/kg intraduodenally immediately after the ligation. The format is in vivo, male Wister rats. As to the method: as §1
In each rat which had been fasted for 48 hours, the pyloric end of stomach was ligated, and each was kept without giving any food or water for 14 hours. Each rat was then slaughtered, and area of ulcer formed in the forestomach was measured and ulceration inded was calculated based on the area. The test compound was administered intraduodenally immediately after the ligation.
as §2

Experiment [2] concerns Water-Immersion stress-Induced Ulcers. The experiment can be described thus: Water-Immersion stress-Induced Ulcers. The class given is in vivo, male Wister rats. To be noted: Rattus norvegicus, po, 10 h, read-out: Water-Immersion Stress, inhibiting ratio; for inhibition in vivo at 20 mg/kg: dose 20 mg/kg orally 10 minutes before the exposure to stress; for inhibition in vivo at 50 mg/kg: dose 50 mg/kg orally 10 minutes before the exposure to stress. As to the method:
as §1
Each rat which had been fasted for 15 hours was immobilized in a stress cage and immersed to chest depth in a water bath at 21°C. Each rat was slaughtered after 10 hours, a length of ulcer formed at the fundus gland area of stomach was measured and ulceration index was calculated based on the length. The test compound was administered orally 10 minutes before the exposure to stress.
as §2

Another experiment relates to Aspirin-Induced Ulcers. The experiment can be described thus: Aspirin-Induced Ulcers. The class given is in vivo, male Wister rats. To be noted: Rattus norvegicus, 9 h, 5 minutes before 150 mg/kg of aspirin orally, read-out: Aspirin, inhibiting ratio; for inhibition in vivo at 50 mg/kg: dose 50 mg/kg intraduodenally at pylorus ligation. As to the method:
as §1
In each rat which had been fasted for 24 hours, the pyloric end of the stomach was ligated, and simultaneously the test compound was administered intraduodenally, and after 5 minutes, 150 mg/kg of aspirin was administered orally, respectively. After 9 hours from ligation, each rat was slaughtered, a length of ulcer formed at the fundus gland area of stomach was measured and ulceration index was calculated based on the length.
as §2

Experiment [3] relates to Ischemia-Reperfusion-Induced Gastric Lesions. The experiment can be described thus: Ischemia-Reperfusion-Induced Gastric Lesions. The format is in vivo, male SD rats. To be noted: dose 40 mg/kg in dimethylsulfoxide from the caudal artery 30 minutes before beginning collection of the blood. As to the method:
as §1
Each rat which had been fasted for 24 hours was anesthetized intraperitoneally with Nembutal and immobilized on a constant temperature pad in a dorsal position. After tracheotomy was performed, blood pressure was measured via a transducer for blood pressure from a cannula inserted in right carotid. The abdomen was opened, and the gastroesophageal junction was ligated. A tube was then passed through the duodenostomy into the stomach and the gastric lumen was lavaged with warm saline. 1 ml of 0.1N hydrochloric acid per 100g body weight was instilled into the stomach via the gastric tube and the pylorus was ligated. When the blood pressure became stable, 2% of weight (w/w) of the blood was collected from a cannula inserted in the left carotid into a syringe containing a heparin added saline solution. After 20 minutes, the collecting blood was retransfused and each rat was left to stand for 20 minutes, and slaughtered and the area of gastric mucosal lesions was measured and ulceration index was calculated based on the area. The test compound was dissolved in dimethylsulfoxide and administered at a dose of 40 mg/kg from the caudal artery 30 minutes before beginning collection of the blood.
as §2

The mark [4] stands for this setting: 3 h, Table 1, dose 20 mg/kg intraduodenally three hours before hydrochloric acid - 60% ethanol.

Molecules are shown by their SMILES. Where a name gives a salt, the structure may show the parent alone. Read-outs that look alike come from different tables or passages of the source. Marks after values point to notes of the source that are not given here.

On to `CC(=O)OC1CC(C)C(=O)CC(C)(C)C1OC(C)=O` (stereo not drawn) [AU117, 2,4-cis-4,5-diacetoxy-2,6,6-trimethylcycloheptan-1-one], for which the figures for the inhibition in vivo at 20 mg/kg (in the experiment on Serotonin-Induced Ulcers; in experiment [1] (setting [4])) were 60% and 62%, respectively.

In the case of `CC1=CC(O)C(OC(=O)C=Cc2ccccc2)C(C)(C)CC1=O` (stereo not shown) [AU205, 5-cinnamoyloxy-4-hydroxy-2,6,6-trimethyl-2-cyclohepten-1-one], the inhibition in vivo at 50 mg/kg turned out to be 50% in the experiment on Shay's Ulcers and 53% in the experiment with Aspirin-Induced Ulcers. Moreover, the inhibition in vivo at 20 mg/kg was 80% in the experiment on Serotonin-Induced Ulcers, 83% in experiment [1] (setting [4]) and 42% in experiment [2].

On to `NC[C@H]1CC[C@H](C(=O)Oc2ccc(CCC(=O)O)cc2)CC1` [Cetraxatehydrochloride, reference compound], for which the inhibition in vivo at 300 mg/kg in the experiment on Shay's Ulcers came to 11%; in experiment [2] (dose 300 mg/kg orally 10 minutes before the exposure to stress), 45%; in the experiment with Aspirin-Induced Ulcers (dose 300 mg/kg intraduodenally at pylorus ligation) it was 33%.

Take `CC1=CC(OC(=O)c2ccc(N)cc2)C2OC1(OCCO)CC2(C)C` (stereo not shown) [AU249, 4-(4-aminobenzoyloxy)-1-(2-hydroxyethoxy)-2,6,6-trimethyl-8-oxabicyclo [3.2.1] oct-2-ene]: the inhibition in vivo at 20 mg/kg in experiment [1] (setting [4]) was determined as 65%; in experiment [2], 33%.

In the case of `CC1=CC(O)C(O)C(C)(C)CC1=O` (stereo not shown) [Saishin N, 4,5-dihydroxy-2,6,6-trimethyl-2-cycloheptene-1-one], the inhibition in vivo at 100 mg/kg in the experiment on Shay's Ulcers (dose 100 mg/kg intraduodenally immediately after the ligation) worked out at 49%; in experiment [2] (dose 100 mg/kg orally 10 minutes before the exposure to stress), 62%; in the experiment on Aspirin-Induced Ulcers (dose 100 mg/kg intraduodenally at pylorus ligation), 60%. The inhibition in vivo at 300 mg/kg in the experiment with Shay's Ulcers was found to be 58%. The inhibition in vivo at 20 mg/kg was 13% in the experiment on Serotonin-Induced Ulcers; 88% in experiment [1] (1 h, Table 2, dose 20 mg/kg intraduodenally one hour before hydrochloric acid - 60% ethanol); 15% in experiment [1] (setting [4]). Moreover, the inhibition in vivo at 50 mg/kg with Serotonin-Induced Ulcers worked out at 36%; in experiment [1] (3 h, Table 1, dose 50mg/kg intraduodenally three hours before hydrochloric acid - 60% ethanol), 83%; in experiment [2] it was 49%; in the experiment on Aspirin-Induced Ulcers, 52%. Besides, the inhibition in vivo at 10 mg/kg in experiment [1] (1 h, Table 2) worked out at 35%.

Consider `COC1C=C(C)C(=O)CC(C)(C)C1O` (stereo not shown) [AU154, 5-hydroxy-4-methoxy-2,6,6-trimethyl-2-cyclohepten-1-one], for which the inhibition in vivo at 50 mg/kg in the experiment on Shay's Ulcers came out at 22%; in experiment [2] it was 17%. Also, the inhibition in vivo at 20 mg/kg in the experiment with Serotonin-Induced Ulcers was 46%; in experiment [1] (setting [4]), 21%. The inhibition in vivo at 10 mg/kg in experiment [1] (1 h, Table 2) was 67%.

Regarding `COc1cc(C=CC(=O)OC2C(O)C=C(C)C(=O)CC2(C)C)ccc1O` (stereo not shown) [AU414, 4-hydroxy-5-(4-hydroxy-3-methoxycinnamoyloxy)-2,6,6-trimethyl-2-cyclohepten-1-one], the inhibition in vivo at 20 mg/kg in experiment [1] (setting [4]) amounted to 89%; in experiment [2], 41%.

On to `COC1C(O)C=C(C)C(=O)CC1(C)C` (stereo not shown) [AU222, 4-hydroxy-5-methoxy-2,6,6-trimethyl-2-cyclohepten-1-one], for which the figures for the inhibition in vivo at 50 mg/kg with Shay's Ulcers and in the experiment on Aspirin-Induced Ulcers were 58% and 28%, respectively. For the same compound, the inhibition in vivo at 20 mg/kg with Serotonin-Induced Ulcers was 84%; in experiment [1] (setting [4]), 54%; in experiment [2], 34%.

`CC1=CC(OC(=O)C=Cc2ccc(N)cc2)C(O)C(C)(C)CC1=O` (stereo not shown) [AU401, 4-(4-aminocinnamoyloxy)-5-hydroxy-2,6,6-trimethyl-2-cyclohepten-1-one]: the inhibition in vivo at 20 mg/kg in the experiment on Serotonin-Induced Ulcers stood at 68%; in experiment [1] (setting [4]), 49%.

As to `CC1=CC(OC(=O)c2ccccc2)C(O)C(C)(C)CC1=O` (stereo not shown) [AU190, 4-benzoyloxy-5-hydroxy-2,6,6-trimethyl-2-cyclohepten-1-one], the inhibition in vivo at 50 mg/kg worked out at 55% in the experiment on Shay's Ulcers, 45% in experiment [2] and 55% in the experiment on Aspirin-Induced Ulcers. Moreover, the inhibition in vivo at 20 mg/kg in the experiment with Serotonin-Induced Ulcers came out at 69%; in experiment [1] (setting [4]) it was 66%.

On to `CC1=CC(OC(=O)c2cccn2C)C(O)C(C)(C)CC1=O` (stereo not shown) [AU501, 4-(1-methyl-2-pyrrolylcarbonyloxy)-5-hydroxy-2,6,6-trimethyl-2-cyclohepten-1-one], for which the inhibition in vivo at 50 mg/kg was determined as 55% in the experiment on Serotonin-Induced Ulcers, 22% in experiment [2] and 30% in the experiment with Aspirin-Induced Ulcers. In addition, the inhibition in vivo at 20 mg/kg in experiment [1] (setting [4]) came out at 56%. Also, the “Ischemia-Reperfusion, inhibiting ratio” value in experiment [3] is recorded as 77(40)**.

On to `COC1C=C(C)C(=O)CC(C)(C)C1OC(=O)c1ccc([N+](=O)[O-])cc1[N+](=O)[O-]` (stereo not shown) [AU407, 5-(2,4-dinitrobenzoyloxy)-4-methoxy-2,6,6-trimethyl-2-cyclohepten-1-one], for which the inhibition in vivo at 20 mg/kg with Serotonin-Induced Ulcers was found to be 41%; in experiment [1] (setting [4]), 82%. For the same compound, the inhibition in vivo at 50 mg/kg in experiment [2] was 50%; in the experiment on Aspirin-Induced Ulcers it was 71%.

With `COC12CC(C)(C)C(OC(C)=O)C(C=C1C)O2` (stereo not shown) [AU159, 4-acetoxy-1-methoxy-3,3,7-trimethyl-8-oxabicyclo [3.2.1] oct-6-ene], the inhibition in vivo at 5 mg/kg in experiment [1] (1 h, Table 2, dose 5 mg/kg intraduodenally one hour before hydrochloric acid - 60% ethanol) was 94%. In experiment [1] (1 h, Table 2), the inhibition in vivo at 10 mg/kg was 83%.

For `CC(=O)OC1C=C(C)C(=O)CC(C)(C)C1OC(C)=O` (stereo not shown) [AU102, 4,5-diacetoxy-2,6,6-trimethyl-2-cyclohepten-1-one], in experiment [1] (1 h, Table 2), the inhibition in vivo at 10 mg/kg worked out at 75%. Besides, in experiment [1] (setting [4]), the inhibition in vivo at 20 mg/kg was 49%.

In the case of `COC1C(O)C=C(C)C(OC(=O)c2ccccc2)CC1(C)C` (stereo not shown) [AU227, 1-benzoyloxy-5-methoxy-2,6,6-trimethyl-2-cyclohepten-4-ol], the inhibition in vivo at 20 mg/kg in experiment [1] (setting [4]) was 47%.

`CO[C@H]1C[C@H](C)C(=O)CC(C)(C)C1OC(=O)c1ccccc1` (relative stereo) [AU123A, 2,4-trans-5-benzoyloxy-4-methoxy-2,6,6-trimethylcycloheptan-1-one]: the inhibition in vivo at 20 mg/kg in experiment [1] (setting [4]) was found to be 34%.
